Where two headings read alike, the source gives them in different places.
Tests used:
[1] = tested on: P. falciparum asexual stages; conditions: TCAMS data, cited from earlier work
[2] = Cytotoxicity in HepG2 cells (intracellular ATP, ATPlite, 48 h); assay type: cell-based, human; conditions: human, HepG2 cells
[3] = tested on: luciferase reaction (BacTiter-Glo); experiment: Interference assay (inhibition of the BacTiter-Glo luciferase reaction); assay type: biochemical; set-up: concentration or dose not given beside the values; conditions: ATP interference assay
Experimental: To discard possible false-positive results, we performed an interference assay in parallel. […] […]. The ATP solution was made by dissolving ATP powder (ATP standard from the ATPlite 1 step assay kit, reference 6016731, Perkin Elmer) in culture medium. The positive control used was the Luciferase Inhibitor I Calbiochem (Merck, 119113) at 100 μM.

[4] = tested on: P. falciparum stage V gametocytes; experiment: Gametocytocidal ATP bioluminescence assay (single point 5 μM and 1 μM, dose-response); assay type: cell-based, Plasmodium falciparum; conditions: for Ratio IC50 HepG2/IC50 P. falciparum: IC50 HepG2 divided by IC50 P. falciparum gametocytes
Experimental: Purified stage IV-V gametocytes were obtained as previously described [10]. Single point ATP bioluminescence assay and dose–response of positive hits was determined in accordance with the previously published protocol [10].

[5] = tested on: HepG2 cells; experiment: Cytotoxicity in HepG2 cells (intracellular ATP, ATPlite, 48 h); assay type: cell-based, human; conditions: HepG2 cells; IC50 per ratio column head; unit inferred
[6] = tested on: P. falciparum stage V gametocytes; experiment: microbe, parasite or virus in culture; set-up: BacTiter-Glo ATP luminescence viability of purified stage V gametocytes in 384-well plates, per cent inhibition versus DMSO; conditions: Plasmodium falciparum, 48 h, read-out: % Inhibition
[7] = asexual stages, read-out: IC50 asexual
[8] = IC50 per ratio column head, unit inferred, read-out: Cytotoxicity in HepG2
[9] = Plasmodium falciparum, P. falciparum gametocytes, average, read-out: IC50 Pf Gametocytes average, IC50 (µM) average
[10] = sexual stages (gametocytes), dose-response, read-out: IC50 sexual
[11] = P. falciparum asexual stages, read-out: IC50 (µM) Pf asexual stages
[12] = HepG2, 48 h exposure, intracellular ATP, read-out: IC50 (μM) Cytotoxicity HepG2
[13] = Plasmodium falciparum, sexual stages (gametocytes), dose-response, read-out: IC50 sexual
[14] = P. falciparum gametocytes, average, read-out: IC50 Pf Gametocytes average, IC50 (µM) average

Structure (SMILES) | IC50 [1, 7] | IC50 at 48 h [2, 8] | % Control luminiscence [3] | Ratio IC50 HepG2/IC50 P. falciparum [4] | IC50 [4, 9] | IC50 [4, 10] | IC50 [1, 11] | IC50 at 48 h [2, 12] | IC50 [4, 13] | IC50 [5] | IC50 [4, 14] | inhibition at 5 µM [6]
Fc1ccc2[nH]c(-c3ccc(-c4ccc(CN5CCC(CCN6CCCCC6)CC5)cc4)s3)nc2c1 [TCMDC-133932] | 0.142 µM | 3.79 µM | 100% | 27 | 0.14 µM |  |  |  |  |  |  | 
COc1ccc2nc(-c3ccccc3)cc(NCCCNc3cc(-c4ccccc4)nc4ccc(OC)cc34)c2c1.Cl [TCMDC-137734] | 0.122 µM | 5.5 µM | 100% | 4.53 | 1.21 µM | 1.21 µM |  |  |  |  |  | 
FC(F)c1nc2ccccc2n1-c1nc(N2CCOCC2)nc(N2CCOCC2)n1 [TCMDC-137004] | 0.761 µM | 1.58 µM | 98% | 0.291 | 5.44 µM | 5.44 µM |  |  |  |  |  | 
COc1ccc(-c2cnc3[nH]cc(-c4ccncc4)c3c2)cc1OC [TCMDC-135853] | 0.126 µM | 3.1 µM | 92% | 3.46 | 0.9 µM | 0.897 µM |  |  |  |  |  | 
Cc1cccc2nc(-c3cccc(-c4cccc(CNCCN5CCNCC5)c4)c3)[nH]c12 [TCMDC-132873] | 0.97 µM | 7.76 µM | 100% | 16 | 0.5 µM | 0.497 µM |  |  |  |  |  | 
CC[C@H]1CN2CCc3cc(OC)c(OC)cc3[C@@H]2C[C@@H]1C[C@H]1NCCc2cc(OC)c(OC)cc21 [TCMDC-125531] | 0.214 µM | 21 µM | 95% |  | 0.35 µM |  | 0.21 µM | 21 µM | 0.347 µM |  |  | 
CC(C)CCNC(=O)c1cnc2c(O)cccc2c1Nc1cccc(NC(=O)c2ccc(F)cc2)c1.O=C(O)C(F)(F)F [TCMDC-139606] | 0.913 µM | 5.27 µM | 98% | 4 | 1.27 µM |  |  |  |  |  |  | 
COc1ccc(CNC(=O)c2cnc3c(O)cccc3c2Nc2cccc(NC(=O)c3ccc(Cl)c(Cl)c3)c2)cc1.O=C(O)C(F)(F)F [TCMDC-139607] | 0.604 µM | < 1.56 µM | 100% | <2.3 | 0.68 µM |  |  |  |  |  |  | 
COc1cc2nc(N3CCN(C(=O)c4c(Cl)nsc4-c4ccccc4Cl)CC3)nc(N)c2cc1OC.O=C(O)C(F)(F)F [TCMDC-138186] | 0.534 µM | 8.18 µM | 100% | 38 | 0.22 µM | 0.215 µM |  |  |  |  |  | 
Cc1cccnc1Nc1nc(-c2ccccn2)cs1 [TCMDC-125846] | 0.687 µM | 3.02 µM | 100% | 30 | 0.1 µM |  |  |  |  |  |  | 
[O-][s+]1c(Cl)c(-c2ccc(Cl)cc2)c2ccc(Cl)cc21 (stereo not drawn) [TCMDC-124011] | 0.993 µM | 12.8 µM | 100% |  | 0.02 µM |  |  |  |  |  |  | 
NC1CCN(Cc2ccc(-c3ccc(-c4nc5cc(F)ccc5[nH]4)cc3)cc2)C1 (stereo not drawn) [TCMDC-133872] | 0.184 µM | 7.25 µM | 100% | 9 | 0.83 µM |  | 0.18 µM | 7 µM | 0.827 µM |  |  | 
CC(C)(C)OC(=O)NCc1ccc(Nc2nnc(-c3ccc(OCC(=O)NCc4ccc(C(C)(C)C)cc4)c([N+](=O)[O-])c3)o2)cc1 [TCMDC-134991] | 0.8 µM |  | 100% | 4.5 |  |  |  |  |  | 3150 nM | 0.7 µM | 
CCc1[nH]nc(C(=O)NC2CCN(CC3(c4ccc(OC)cc4)CCCCC3)CC2)c1C [TCMDC-124840] | 0.892 µM |  | 100% |  |  |  |  |  |  | > 25000 nM | > 10 µM | 
CC(CCCCCC(=O)Nc1ccc(CC(C)NCCc2cccc(Cl)c2)cc1)NCCc1cccc(Cl)c1 (stereo not drawn) [TCMDC-139800] | 0.948 µM |  | 100% | 7.38 |  | 0.433 µM |  |  |  | 3200 nM | 0.43 µM | 
Cc1ccc(-n2nc(-c3ccccc3)c3cc(C(=O)NCCN)sc32)cc1 [TCMDC-124776] | 1.36 µM |  | 99% | 7 |  |  |  |  |  | 7830 nM | 1.11 µM | 
O=C(/C=C/c1ccc(Cl)c(Cl)c1)N1CCC(CCN2CCC(c3c[nH]c4cnccc34)CC2)CC1 [TCMDC-140136] | 0.119 µM |  | 100% | 36 |  |  |  |  |  | 7210 nM | 0.2 µM | 
CN(C)S(=O)(=O)c1cc(-c2ccc3nccc(-c4cccc(S(N)(=O)=O)c4)c3c2)cnc1N [TCMDC-134230] | 0.251 µM |  | 100% | <1.5 |  |  |  |  |  | 14800 nM | > 10 µM | 
COc1ccc2c(NN=Cc3ccc(OC)c4ccccc34)cc(C)nc2c1 [TCMDC-142218] | 0.599 µM |  | 97% | 10 |  | 0.773 µM |  |  |  | 7860 nM | 0.77 µM | 97.5%
COCCn1c(-c2cccc(Cl)c2)nn(-c2ccc([N+](=O)[O-])cc2C#N)c1=S [TCMDC-134719] | 0.178 µM |  | 97% | >9 |  | 2.78 µM |  |  |  | > 25000 nM | 2.78 µM | 
CC(C)CC(=O)N(Cc1ccc(-c2ccc(CNC3Cc4ccccc4C3)cc2)cc1)C1CCNCC1 [TCMDC-141449] | 1.17 µM |  | 100% | 10 |  | 0.633 µM |  |  |  | 6200 nM | 0.63 µM | 
C=CCNC(CCCCC)c1ccc(OCCOc2ccc(C(CCCCC)NCC=C)cc2)cc1 (stereo not drawn) [TCMDC-137483] | 0.567 µM |  | 100% | 6.41 |  | 0.905 µM |  |  |  | 5800 nM | 0.91 µM | 
CS(=O)(=O)CCNCc1nc(-c2ccc3c(=O)[nH]cnc3c2)cs1 [TCMDC-138539] | 1.01 µM |  | 98% | 1.57 |  |  |  |  |  | 4200 nM | 2.68 µM | 
Cc1cc(OCCN2CCCCC2)ccc1NC(=O)c1cccc2c(=O)n(Cc3ccc(Cl)cc3)cnc12 [TCMDC-136727] | 1.05 µM |  | 97% | 5 |  |  |  |  |  | 4730 nM | 0.95 µM | 
COc1ccc2nc(-c3cccc(C)n3)nc(Nc3ccncc3)c2c1 [TCMDC-134670] | 0.669 µM |  | 100% |  |  |  |  |  |  | > 25000 nM | 2.51 µM | 
Cc1cc(NCCCCCCNc2cc(C)nc3c(C)cccc23)c2cccc(C)c2n1 [TCMDC-125702] | 0.406 µM |  | 100% | >7.5 |  | 3.31 µM |  |  |  | > 25000 nM | 3.32 µM | 

— PMC4552634, “A New Set of Chemical Starting Points with Plasmodium falciparum Transmission-Blocking Potential for Antimalarial Drug Discovery” (PLoS ONE, 2015)
